The test system of one data set is bile acid metabolism. Nature of the data set: Analysis of bile acid metabolism markers (glycine, taurine) by NMR in serum and urine of high-fat-diet mice. The settings on record: gallic acid 100 mg/kg orally daily (the third group), 16-week-old. It counts as in vivo, C57BL6/J male mice. The procedure: (§1) The gallic acid is purchased from Sigma, U.S.A.
(§2) In addition, to ensure experimental stability, the mice in the first and second group were given water at a volume the same as that in the third and fourth group. At the age of 16-week-old, the urine of the mice was collected, and the concentration of the blood glucose and serum insulin were measured. Then, the mice were sacrificed, and the serum was collected for the analysis of metabolic markers. The liver was weighted and photographed.
(§3) The collected blood and urine were analyzed by a nuclear magnetic resonance spectrum. The steps are shown as follows. • (1) Urine: The urine (500 μl), PBS (50 μl) (81:19 vol/vol, comprising 0.2 M NaHPO4 and 0.2 M NaH2PO4, pH=7.4), 10% deuteroxide, and 0.03% trimethylsilyl propionate (TSP) were mixed in a micro-centrifuge tube and centrifuged with 13000 rpm for 20 minutes at 4° C. The supernatant (500 μl) was collected and analyzed by 600 MHz nuclear magnetic resonance (NMR, Bruker AVANCE 600AV) at 25° C. The 1D NOESY FID signal was transferred to a one-dimensional NMR spectrum of graphing through Fourier transform. • (2) Blood: The serum (250 μl) and deuteroxide (350 μl) were mixed in a micro-centrifuge tube and centrifuged with 13000 rpm for 20 minutes at 4° C. The supernatant (500 μl) was collected and analyzed. The metabolites in serum were analyzed by using NMR sequence CPMG.
It has been known that the concentration of taurine and glycine can be used as markers of bile acid metabolism (see Miyazaki T, Matsuzaki Y (2012) Taurine and liver diseases: a focus on the heterogeneous protective properties of taurine. Amino Acids, which is entirely incorporated hereinto by reference). Therefore, the integrated area of the spectrum of glycine (chemical shift 3.56 ppm singlet) and the taurine (chemical shift 3.40 ppm triplet) in the blood and urine were analyzed.

Another data set relates to amino acid metabolism. Nature of the data set: Analysis of amino acid metabolism markers by NMR in serum of high-fat-diet mice. It counts as in vivo, C57BL6/J male mice. The note with it: gallic acid 100 mg/kg orally daily (the third group). As to the method: as §1, §2, §3
It has been known that the concentration of isoleucine, leucine, valine, glutamate, glutamine, tyrosine, phenylalanine, alanine, lysine, arginine and ornithine can be used as the markers of amino acid metabolism (see Rare Disease Diet Control Manual—amino acid metabolism, Foundation for Rare Disorders, pages 18, 22, 26-31, which is entirely incorporated hereinto by reference). Therefore, the integrated area of the spectrum of isoleucine (chemical shift 1.01 ppm dublet), the leucine (chemical shift 0.97 ppm triplet) and the valine (chemical shift 1.04 ppm doublet) in the serum were analyzed.

The subject of data set [1] is gut microbiota metabolism. Description: Analysis of gut microbiota metabolism markers by NMR in serum and urine of high-fat-diet mice. It counts as in vivo, C57BL6/J male mice. The settings on record: gallic acid 100 mg/kg orally daily (the third group). As to the method: as §1, §2, §3
It has been known that the concentration of isobutyric acid, butanoic acid, hippuric acid, dimethylamine and trimethylamine can be used as the markers of the gut microbiota metabolism and reflect the change of gut microbiota. Therefore, the integrated area of the spectrum of isobutyric acid, butanoic acid, hippuric acid, dimethylamine and trimethylamine in the blood and urine were analyzed.

Data set [2] has as its system nonalcoholic fatty liver and insulin resistance in mice induced by the high-fat-diet. Nature of the data set: Liver weight, blood glucose, serum insulin and liver pathology in high-fat-diet mice. Format: in vivo, C57BL6/J male mice. The note with it: gallic acid 50 or 100 mg/kg orally daily, compared to the high-fat-diet group. As to the method: as §1, §2
The test system of the next data set is mouse. The settings on record: cited from earlier work.

With `O=C(O)c1cc(O)c(O)c(O)c1` [gallic acid], in the data set with bile acid metabolism (serum), the “glycine, integrated area of NMR spectrum” value is 142.91 ± 10.60 the normalized and transferred NMR signal × 10^3. Also, in the data set on bile acid metabolism (urine), the “glycine, integrated area of NMR spectrum” value was 206.51 ± 8.45 the normalized and transferred NMR signal × 10^3; the “taurine, integrated area of NMR spectrum” value was 489.81 ± 125.78 the normalized and transferred NMR signal × 10^3. Also, in the data set on amino acid metabolism, the “alanine, integrated area of NMR spectrum” value was 96.11 ± 6.07 the normalized and transferred NMR signal × 10^3; the “arginine, integrated area of NMR spectrum” value was 30.08 ± 0.78 the normalized and transferred NMR signal × 10^3; the “glutamate, integrated area of NMR spectrum” value is 39.50 ± 1.39 the normalized and transferred NMR signal × 10^3; the “glutamine, integrated area of NMR spectrum” value is 40.61 ± 3.88 the normalized and transferred NMR signal × 10^3. Moreover, in the data set with amino acid metabolism, the “isoleucine, integrated area of NMR spectrum” value was 32.29 ± 3.25 the normalized and transferred NMR signal × 10^3; the “leucine, integrated area of NMR spectrum” value was 109.28 ± 2.36 the normalized and transferred NMR signal × 10^3; the “lysine, integrated area of NMR spectrum” value is 74.93 ± 2.24 the normalized and transferred NMR signal × 10^3; the “ornithine, integrated area of NMR spectrum” value is 36.39 ± 1.45 the normalized and transferred NMR signal × 10^3. Also, in the data set on amino acid metabolism, the “phenylalanine, integrated area of NMR spectrum” value was 6.44 ± 0.39 the normalized and transferred NMR signal × 10^3; the “tyrosine, integrated area of NMR spectrum” value is 6.78 ± 0.85 the normalized and transferred NMR signal × 10^3; the “valine, integrated area of NMR spectrum” value was 68.26 ± 3.46 the normalized and transferred NMR signal × 10^3. Moreover, the “isobutyric acid, integrated area of NMR spectrum” value in data set [1] (serum) turned out to be 22.49 ± 1.55. For the same molecule, in data set [1] (urine), the “butanoic acid, integrated area of NMR spectrum” value was found to be 187.08 ± 10.46; the “dimethylamine, integrated area of NMR spectrum” value is listed as 197.9 ± 9.20; the “hippuric acid, integrated area of NMR spectrum” value turned out to be 10.33 ± 0.90; the “trimethylamine, integrated area of NMR spectrum” value turned out to be 269.21 ± 76.77. For the same molecule, in data set [2] (FIGS. 1, 4A, 4B), the “effect on nonalcoholic fatty liver induced by the high-fat-diet” value is “ameliorating”. The “effect on insulin resistance induced by the high-fat-diet” value in data set [2] (FIGS. 2, 3) is “ameliorating”. In the data set on mouse, the “No Observed Adverse Effect Level (NOAEL)” value was “greater than 5000 mg/kg”.
